Consider two compounds from patent publication US20240197728A1, “METHODS AND PHARMACEUTICAL COMPOSITIONS FOR TREATING REFRACTORY EPILEPSY” (INSERM (INSTITUT NATIONAL DE LA SANTÉ ET DE LA RECHERCHE …, priority 2021, published 2024).

In one assay the test system is SPAK. The assay is described as follows: Immunoblot of SPAK phosphorylation and expression in hippocampo-cortical slices. In kind it is cell-based, rat. The note with it: vs DMSO. The procedure: For all experiments on hippocampal cultures, neurons were pre-incubated for 2 hours with either DMSO, PCPZ or CLP257 in a CO2 incubator set at 37° C. Drugs were added directly to the culture medium. For electrophysiology experiments, neurons were also recorded in presence of these drugs in the bath. For biochemistry experiments on rat hippocampo-cortical slices, slices were incubated with either DMSO (vehicle), CLP257, PCPZ, WNK463 or sodium orthovanadate for 2 hours in interface chambers set at 37° C. For human tissue experiments, slices were pre-incubated with either DMSO, CLP257 or PCPZ for 2 hours in interface chambers set at 37° C. and then also recorded in presence of these compounds.
8-weeks old Sprague Dawley male rats were anesthetized by intraperitoneal ketamine/xylazine injection (120/10 mg/kg) and perfused transcardially with ice-cold (0-4° C.), oxygenated solution (O2/CO2 95/5%), containing (in mM): N-methyl-d-glucamine 93, KCl 2.5, NaH2PO4 1.2, NaHCO330, HEPES 20, D-glucose 20, ascorbic acid 5, sodium pyruvate 3, MgSO4 10 and CaCl2) 0.5 (300-310 mOsm, pH7.4). Brains were removed and transverse hippocampo-cortical slices (400 m thick) were prepared in the same solution using a vibratome (HM650V, Microm). Slices were then incubated for 2-hours with DMSO, the KCC2 enhancers (CLP257, PCPZ, WNK43) or sodium orthovanadate in an interface chamber containing artificial cerebrospinal fluid (ACSF) composed of (in mM): D-glucose 10, KCl 3.5, NaHOC3 26, NaH2PO4 1.25, NaCl 126, CaCl2) 1.6 and MgCl2 1.2 (290 mOsm), equilibrated with 5% CO2 in 95% 02. After the treatments, slices were washed with cold PBS, instantaneously frozen with liquid nitrogen and stored at −80° C.
Slices were mechanically lysed on ice, using a 2 mL Dounce, in a buffer containing (in mM): Tris/HCl, pH 7.5 50, EGTA 1, EDTA 1, sodium orthovanadate 1, sodium-B-glycerophosphate 10, sodium fluoride 50, sodium pyrophosphate 5, sucrose 270, benzamidine 1, phenylmethylsulfonyl fluoride 2, Triton […], (v/v) 2-mercaptoethanol 0.1% and protease inhibitors (Roche). After complete homogenization, samples were centrifuged (16,000×g at 4° C. for 10 min) and the supernatant was collected. Protein quantification was done using Pierce BCA Protein Assay kit (Thermo Scientific) with BSA as standard.
Samples were subjected to electrophoresis on polyacrylamide gradient gels (4-12% bis-tris gels) and transferred to nitrocellulose membranes. Membranes were rinsed with TBS-tween solution (TBST; Invitrogen) and blocked with 5% (w/v) skim milk. […] Fluorescence was detected and the relative intensities of immunoblot bands were determined using Odyssey infrared imaging system (LI-COR Bioscience). […]
On the technique in general: A western blot detects proteins with antibodies after separation by electrophoresis.

The test system of another assay is synaptic GABAA receptors. The assay is described as follows: Miniature inhibitory postsynaptic currents (mIPSCs) in hippocampal neurons. The class given is cell-based, rat.
The target of assay [1] is T1, recombinant human STK39 (SPAK) (Homo sapiens, UniProt Q9UEW8).
T1 construct: purchased Eurofins Discovery (KinaseProfiler, contractor)
The experiment in a line: Radiometric kinase profiling assay. In kind it is biochemical. The note with it: 70 μM ATP. The procedure: (§1) Kinase activity profiles (data not shown) were performed using radiometric assays to measure kinase catalytic activity for PCPZ concentrations ranging 0.1-500 μM in DMSO or CLP257 concentrations ranging 0.1-1000 μM in DMSO, in the presence of 70 μM ATP. Equimolar DMSO concentrations were used as control. Additional information on the kinase profiler assay can be obtained from the contractor's website. (https://www.eurofinsdiscoveryservices.com/cms/cms-content/services/in-vitro-assays/kinases/kinase-profiler).

The target in the next assay is T2, recombinant human WNK1 (Homo sapiens, UniProt Q9H4A3).
T2 construct: purchased Eurofins Discovery (KinaseProfiler, contractor)
T2 sequence (Q9H4A3 whole entry): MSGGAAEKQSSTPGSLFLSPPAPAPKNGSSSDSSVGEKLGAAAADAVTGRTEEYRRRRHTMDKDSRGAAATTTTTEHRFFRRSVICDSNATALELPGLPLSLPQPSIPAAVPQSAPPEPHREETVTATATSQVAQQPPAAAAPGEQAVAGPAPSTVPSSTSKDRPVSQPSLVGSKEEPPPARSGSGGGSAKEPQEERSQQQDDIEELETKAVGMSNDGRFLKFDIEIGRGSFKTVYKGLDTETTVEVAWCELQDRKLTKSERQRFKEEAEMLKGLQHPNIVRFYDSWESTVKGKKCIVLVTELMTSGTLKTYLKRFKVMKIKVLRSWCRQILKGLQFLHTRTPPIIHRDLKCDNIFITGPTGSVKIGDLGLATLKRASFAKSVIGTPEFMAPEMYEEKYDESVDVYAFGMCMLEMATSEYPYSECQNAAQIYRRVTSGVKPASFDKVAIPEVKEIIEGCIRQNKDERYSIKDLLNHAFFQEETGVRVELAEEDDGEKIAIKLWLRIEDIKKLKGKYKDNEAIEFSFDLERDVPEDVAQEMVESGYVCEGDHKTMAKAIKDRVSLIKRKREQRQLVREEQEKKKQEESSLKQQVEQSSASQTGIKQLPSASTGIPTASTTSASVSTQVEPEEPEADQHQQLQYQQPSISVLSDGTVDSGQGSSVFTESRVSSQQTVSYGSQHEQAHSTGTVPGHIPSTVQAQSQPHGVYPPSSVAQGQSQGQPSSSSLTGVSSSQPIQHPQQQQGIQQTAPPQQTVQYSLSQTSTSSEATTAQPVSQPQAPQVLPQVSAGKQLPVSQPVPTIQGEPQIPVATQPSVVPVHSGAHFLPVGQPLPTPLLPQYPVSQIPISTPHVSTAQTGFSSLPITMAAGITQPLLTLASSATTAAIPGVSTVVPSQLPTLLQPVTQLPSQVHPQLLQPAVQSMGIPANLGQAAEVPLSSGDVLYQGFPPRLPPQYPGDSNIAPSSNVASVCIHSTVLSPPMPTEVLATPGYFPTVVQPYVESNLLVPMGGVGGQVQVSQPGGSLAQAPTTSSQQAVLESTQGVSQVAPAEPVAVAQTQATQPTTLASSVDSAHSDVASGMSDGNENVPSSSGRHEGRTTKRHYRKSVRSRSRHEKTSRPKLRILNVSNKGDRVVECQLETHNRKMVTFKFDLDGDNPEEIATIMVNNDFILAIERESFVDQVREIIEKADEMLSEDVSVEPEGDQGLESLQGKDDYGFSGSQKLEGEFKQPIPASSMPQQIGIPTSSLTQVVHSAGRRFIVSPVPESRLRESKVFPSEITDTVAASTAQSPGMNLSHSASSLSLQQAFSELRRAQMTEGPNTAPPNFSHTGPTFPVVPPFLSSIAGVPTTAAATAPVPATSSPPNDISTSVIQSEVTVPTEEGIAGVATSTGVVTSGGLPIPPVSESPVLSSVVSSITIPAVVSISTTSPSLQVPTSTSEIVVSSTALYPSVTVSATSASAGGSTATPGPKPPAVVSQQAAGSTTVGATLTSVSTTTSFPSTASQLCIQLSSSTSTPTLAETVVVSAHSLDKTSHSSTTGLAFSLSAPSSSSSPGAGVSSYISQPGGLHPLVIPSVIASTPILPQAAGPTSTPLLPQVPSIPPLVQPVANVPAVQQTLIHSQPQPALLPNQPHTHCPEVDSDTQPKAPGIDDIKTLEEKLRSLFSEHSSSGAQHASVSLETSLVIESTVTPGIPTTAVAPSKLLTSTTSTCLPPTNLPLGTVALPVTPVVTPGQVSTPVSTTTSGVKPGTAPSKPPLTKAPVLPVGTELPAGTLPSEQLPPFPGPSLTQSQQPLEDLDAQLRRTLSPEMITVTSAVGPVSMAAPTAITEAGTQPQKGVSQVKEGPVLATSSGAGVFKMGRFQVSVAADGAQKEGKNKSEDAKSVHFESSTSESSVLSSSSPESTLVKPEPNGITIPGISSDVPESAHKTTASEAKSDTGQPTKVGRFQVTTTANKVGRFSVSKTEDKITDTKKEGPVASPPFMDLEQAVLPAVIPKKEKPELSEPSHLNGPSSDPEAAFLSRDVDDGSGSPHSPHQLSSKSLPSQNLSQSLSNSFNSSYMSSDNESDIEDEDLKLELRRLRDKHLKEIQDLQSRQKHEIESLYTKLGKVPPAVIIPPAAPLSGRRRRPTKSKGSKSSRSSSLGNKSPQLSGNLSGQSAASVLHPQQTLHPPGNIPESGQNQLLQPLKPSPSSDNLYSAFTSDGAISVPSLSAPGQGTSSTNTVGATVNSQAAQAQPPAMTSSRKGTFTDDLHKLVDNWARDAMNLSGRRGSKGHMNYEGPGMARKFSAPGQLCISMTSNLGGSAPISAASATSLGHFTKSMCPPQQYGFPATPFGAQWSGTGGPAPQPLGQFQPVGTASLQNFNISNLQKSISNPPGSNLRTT
The experiment in a line: Radiometric kinase profiling assay. The class given is biochemical. The note with it: 70 μM ATP. The method, then:
as §1

The next assay concerns the target T3, recombinant human OSR1 (Homo sapiens, UniProt O95747).
T3 construct: purchased Eurofins Discovery (KinaseProfiler, contractor)
The experiment in a line: Radiometric kinase profiling assay. The class given is biochemical. The note with it: 70 μM ATP. The method, then:
as §1

T3 sequence (O95747 whole entry): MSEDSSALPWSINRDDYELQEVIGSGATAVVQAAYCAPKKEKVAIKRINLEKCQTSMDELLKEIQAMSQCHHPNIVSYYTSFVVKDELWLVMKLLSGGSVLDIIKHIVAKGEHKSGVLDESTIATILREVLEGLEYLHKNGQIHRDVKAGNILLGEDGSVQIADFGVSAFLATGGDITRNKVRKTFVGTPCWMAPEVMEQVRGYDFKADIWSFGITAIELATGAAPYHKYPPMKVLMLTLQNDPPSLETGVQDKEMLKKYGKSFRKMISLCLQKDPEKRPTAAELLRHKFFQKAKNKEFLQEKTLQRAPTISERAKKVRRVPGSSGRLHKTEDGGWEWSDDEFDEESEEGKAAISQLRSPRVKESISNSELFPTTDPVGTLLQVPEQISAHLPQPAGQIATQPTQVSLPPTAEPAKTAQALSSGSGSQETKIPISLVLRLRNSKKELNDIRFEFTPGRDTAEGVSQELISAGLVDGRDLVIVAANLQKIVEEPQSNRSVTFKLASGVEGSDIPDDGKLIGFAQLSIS

As for `O=C1N=C(N2CCCCN2)S/C1=C\c1ccc(F)cc1O` [CLP257, (5Z)-5-[(4-Fluoro-2-hydroxyphenyl)methylene]-2-(tetrahydro-1-(2H)-pyridazinyl)-4(5H)-thiazolone], in the assay on SPAK (100 μM CLP257, 2 h), the “change of SPAK phosphorylation (S373 residue)” value is given as “+33.30±24.00%” and the “change of total expression of SPAK” value is recorded as −5.97±17.4%. The “mIPSCs decay time constant” value in the assay with synaptic GABAA receptors (100 μM CLP257, before drug 12.36±0.75) is 12.53 ± 1.01 ms. This compound registered a mIPSCs amplitude in the assay on synaptic GABAA receptors (100 μM CLP257, before drug 42.32±3.40) of 43.77±2.86 pA. Further, the “inhibition of SPAK kinase activity” value in assay [1] (CLP257 0.1-1000 μM) was “no direct inhibitory effect”. Also, the “inhibition of WNK1 kinase activity” value at recombinant human WNK1 (CLP257 0.1-1000 μM) is “no direct inhibitory effect”. On recombinant human OSR1 (CLP257 0.1-1000 μM), the “inhibition of OSR1 kinase activity” value is given as “no direct inhibitory effect”.
Regarding `CN1CCN(CCCN2c3ccccc3Sc3ccc(Cl)cc32)CC1` [PCPZ, prochlorperazine], the “change of SPAK phosphorylation (S373 residue)” value in the assay on SPAK (10 μM PCPZ, 2 h) is “+36.90±48.40%”. The “mIPSCs decay time constant” value in the assay with synaptic GABAA receptors (10 μM PCPZ, before drug 10.66±0.80) amounted to 10.17 ± 0.71 ms. Further, the mIPSCs amplitude in the assay with synaptic GABAA receptors (10 μM PCPZ, before drug 42.49±2.54) was found to be 42.92±2.55 pA. In assay [1] (PCPZ 0.1-500 μM), the “inhibition of SPAK kinase activity” value was “no direct inhibitory effect”. Further, at recombinant human WNK1 (PCPZ 0.1-500 μM), the “inhibition of WNK1 kinase activity” value is given as “no direct inhibitory effect”. In addition, on recombinant human OSR1 (PCPZ 0.1-500 μM), the “inhibition of OSR1 kinase activity” value is reported as “no direct inhibitory effect”.
